Where two headings read alike, the source gives them in different places. Starred links: 1 amine or outer side, 2 acyl side, 3 side chain; linkers in the order of their positions; H or OH if unused. Positions of bridges follow the written chain, without caps; N, C: chain ends. Non-standard residues stand in square brackets, D forms with d. Residues, ends and D or L forms follow the SMILES beside them. *: point of attachment. X1 = O=C([C@@H]1C[C@H](N[*:3])CN1[*:1])[*:2]; mXylylene = c1cc(C[*:1])cc(C[*:2])c1; oXylylene = c1ccc(C[*:2])c(C[*:1])c1; X2 = c1ccc2cc(C[*:2])c(C[*:1])cc2c1; Stearoyl = CCCCCCCCCCCCCCCCCC(=O)*; pXylylene = c1cc(C[*:2])ccc1C[*:1]; βAla = NCCC(=O)O
Molecular target: Keap1-Maltose Binding Protein (MBP tag) (Homo sapiens, UniProt Q14145)
Sequence (Q14145 whole entry): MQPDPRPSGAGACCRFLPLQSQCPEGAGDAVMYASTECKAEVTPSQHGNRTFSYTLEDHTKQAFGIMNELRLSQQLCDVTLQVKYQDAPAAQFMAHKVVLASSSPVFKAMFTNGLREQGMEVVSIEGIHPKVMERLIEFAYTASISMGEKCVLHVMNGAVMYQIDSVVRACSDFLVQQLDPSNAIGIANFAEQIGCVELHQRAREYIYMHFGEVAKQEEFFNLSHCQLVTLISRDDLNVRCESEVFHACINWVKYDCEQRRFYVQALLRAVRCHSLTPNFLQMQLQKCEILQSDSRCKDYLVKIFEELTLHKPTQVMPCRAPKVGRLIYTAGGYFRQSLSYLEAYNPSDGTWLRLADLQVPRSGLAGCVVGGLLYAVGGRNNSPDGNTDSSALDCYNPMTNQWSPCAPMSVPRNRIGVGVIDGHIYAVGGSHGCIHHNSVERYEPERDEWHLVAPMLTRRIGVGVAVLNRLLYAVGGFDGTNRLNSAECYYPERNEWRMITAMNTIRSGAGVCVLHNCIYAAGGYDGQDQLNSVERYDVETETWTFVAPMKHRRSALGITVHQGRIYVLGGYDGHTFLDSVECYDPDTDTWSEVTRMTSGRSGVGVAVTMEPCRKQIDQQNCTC
Test: Nrf2-Keap1 HTRF (TR-FRET) binding assay: displacement of biotinylated ETGE peptide from Keap1-MBP
[1] = HTRF (TR-FRET), displacement of ETGE-biotin from Keap1-MBP, values banded into grades, read-out: Binding (IC50) ETGE-Keap1

SMILES | IC50 [nM] | IC50 [1] [nM]
CCCCCCCC/C=C\CCCCCCCC(=O)N[C@H]1C[C@H]2C(=O)N[C@@H](CCC(N)=O)C(=O)N[C@H]3CSCc4ccccc4CSC[C@H](NC(=O)[C@H](CCC(=O)O)NC(=O)CNC(=O)[C@H]([C@@H](C)O)NC(=O)[C@H](CCC(=O)O)NC(=O)[C@@H]4CCCN4C(=O)[C@H](CC(=O)O)NC3=O)C(=O)N[C@@H](CC(C)C)C(=O)N3CCC[C@@H]3C(=O)N2C1 [Example 88, {[&^1Pro((4S)-NH-oleyl)-Gln-Cys(&^2)-Asp-Pro-Glu-Thr-Gly-Glu-Cys(&^3)-Leu-D-Pro&^1][&^2(1,2-phenylenediyl)dimethylene&^3]}] | < 1 | 
CCCCCCCCCCCCCCCCCC(=O)NCCC(=O)N[C@@H](CC(C)C)C(=O)N[C@@H](CCC(N)=O)C(=O)N[C@H]1CSCc2cccc(c2)CSC[C@@H](C(=O)N[C@@H](CC(C)C)C(=O)N2CCC[C@H]2C(=O)O)NC(=O)[C@H](CCC(=O)O)NC(=O)CNC(=O)[C@H]([C@@H](C)O)NC(=O)[C@H](CCC(=O)O)NC(=O)[C@@H]2CCCN2C(=O)[C@H](CC(=O)O)NC1=O [Example 37, {[Stearyl-βA1a-Leu-Gln-Cys(&^1)-Asp-Pro-Glu-Thr-Gly-Glu-Cys(&^2)-Leu-Pro-OH][&^1(1,3-phenylenediyl)dimethylene&^2]}] ({Stearoyl-βAla}-LQCDPETGECLP-OH; linker 3-10 via mXylylene) |  | 1 to 100
CCCCCCCCCCCCCCCCCC(=O)NCCC(=O)N[C@@H](CCCCN)C(=O)N[C@@H](CCCCN)C(=O)N[C@H]1CSCc2ccccc2CSC[C@@H](C(=O)N[C@@H](CC(C)C)C(=O)N2CCC[C@H]2C(N)=O)NC(=O)[C@H](CCC(=O)O)NC(=O)CNC(=O)[C@H]([C@@H](C)O)NC(=O)[C@H](CCC(=O)O)NC(=O)[C@@H]2CCCN2C(=O)[C@H](CC(=O)O)NC1=O [Example 57, {[Stearyl-βAla-Lys-Lys-Cys(&^1)-Asp-Pro-Glu-Thr-Gly-Glu-Cys(&^2)-Leu-Pro-NH2][&^1(1,2-phenylenediyl)dimethylene&^2]}] ({Stearoyl-βAla}-KKCDPETGECLP-NH2; linker 3-10 via oXylylene) |  | < 1
CCCCCCCCCCCCCCCCCCCC(=O)N[C@H]1C[C@H]2C(=O)N[C@@H](CCC(N)=O)C(=O)N[C@H]3CSCc4ccccc4CSC[C@H](NC(=O)[C@H](CCC(=O)O)NC(=O)CNC(=O)[C@H]([C@@H](C)O)NC(=O)[C@H](CCC(=O)O)NC(=O)[C@@H]4CCCN4C(=O)[C@H](CC(=O)O)NC3=O)C(=O)N[C@@H](CC(C)C)C(=O)N3CCC[C@@H]3C(=O)N2C1 [Example 90, {[&^1Pro((4S)-NH-arachidyl)-Gln-Cys(&^2)-Asp-Pro-Glu-Thr-Gly-Glu-Cys(&^3)-Leu-D-Pro&^1][&^2(1,2-phenylenediyl)dimethylene&^3]}] | < 1 | 
CC(C)C[C@H](NC(=O)[C@@H]1CSCc2ccccc2CSC[C@H](NC(=O)[C@H](CCC(N)=O)NC(=O)[C@@H](N)CC(C)C)C(=O)N[C@@H](CC(=O)O)C(=O)N2CCC[C@H]2C(=O)N[C@@H](CCC(=O)O)C(=O)N[C@@H]([C@@H](C)O)C(=O)NCC(=O)N[C@@H](CCC(=O)O)C(=O)N1)C(=O)N1CCC[C@H]1C(=O)NCCC(=O)N[C@@H](CCCNC(=N)N)C(=O)N[C@@H](CCCCN)C(=O)N[C@@H](CCCCN)C(=O)N[C@@H](CCCNC(=N)N)C(=O)N[C@@H](CCCNC(=N)N)C(=O)N[C@@H](CCC(N)=O)C(=O)N[C@@H](CCCNC(=N)N)C(=O)N[C@@H](CCCNC(=N)N)C(=O)N[C@@H](CCCNC(=N)N)C(N)=O [Example 34] |  | 1 to 100
CCCCCCCCCCCCCCCCCC(=O)NCCC(=O)N[C@@H](CC(C)C)C(=O)N[C@@H](CCC(N)=O)C(=O)N[C@H]1CSCc2cc3ccccc3cc2CSC[C@@H](C(=O)N[C@@H](CC(C)C)C(=O)N2CCC[C@H]2C(=O)O)NC(=O)[C@H](CCC(=O)O)NC(=O)CNC(=O)[C@H]([C@@H](C)O)NC(=O)[C@H](CCC(=O)O)NC(=O)[C@@H]2CCCN2C(=O)[C@H](CC(=O)O)NC1=O [Example 36, {[Stearyl-βAla-Leu-Gln-Cys(&^1)-Asp-Pro-Glu-Thr-Gly-Glu-Cys(&^2)-Leu-Pro-OH][&^1(naphthalene)2,3-diyldimethylene&^2]}] ({Stearoyl-βAla}-LQCDPETGECLP-OH; linker 3-10 via X2) |  | 1 to 100
CC(C)C[C@@H]1NC(=O)[C@@H]2CCCN2C(=O)[C@H](CC(C)C)NC(=O)[C@@H]2CSCc3ccc(cc3)CSC[C@H](NC(=O)[C@H](CCC(N)=O)NC1=O)C(=O)N[C@@H](CC(=O)O)C(=O)N[C@@H](CCC(=O)O)C(=O)N[C@@H](CCC(=O)O)C(=O)N[C@@H]([C@@H](C)O)C(=O)NCC(=O)N[C@@H](CCC(=O)O)C(=O)N2 [Example 5, {[&^1Leu-Gln-Cys(&^2)-Asp-Glu-Glu-Thr-Gly-Glu-Cys(&^3)-Leu-Pro&^1][&^2(1,4-phenylenediyl)dimethylene&^3]}] (cyclo(CDEETGECLPLQ); linker 1-8 via pXylylene) | 1 to 100 | 
CCCCCCCCCCCCCCCCCC(=O)N[C@H]1C[C@H]2C(=O)N[C@@H](CCC(N)=O)C(=O)N[C@H]3CSCc4cccc(c4)CSC[C@H](NC(=O)[C@H](CCC(=O)O)NC(=O)CNC(=O)[C@H]([C@@H](C)O)NC(=O)[C@H](CCC(=O)O)NC(=O)[C@@H]4CSCN4C(=O)[C@H](CC(=O)O)NC3=O)C(=O)N[C@@H](CC(C)C)C(=O)N3CCC[C@@H]3C(=O)N2C1 [Example 96, {[&^1Pro((4S)-NH-Stearyl)-Gln-Cys(&^2)-Asp-Thz-Glu-Thr-Gly-Glu-Cys(&^3)-Leu-D-Pro&^1][&^2(1,3-phenylenediyl)dimethylene&^3]}] |  | < 1
CCCCCCCCCCCCCCCCCC(=O)NCCC(=O)N[C@@H](CCCCN)C(=O)N[C@@H](CCCCN)C(=O)N[C@H]1CSCc2ccccc2CSC[C@@H](C(=O)N[C@@H](CCCCN)C(=O)N[C@@H](CCCCN)C(N)=O)NC(=O)[C@H](CCC(=O)O)NC(=O)CNC(=O)[C@H]([C@@H](C)O)NC(=O)[C@H](CCC(=O)O)NC(=O)[C@@H]2CCCN2C(=O)[C@H](CC(=O)O)NC1=O [Example 53, {[Stearyl-βAla-Lys-Lys-Cys(&^1)-Asp-Pro-Glu-Thr-Gly-Glu-Cys(&^2)-Lys-Lys-NH2][&^1(1,2-phenylenediyl)dimethylene&^2]}] ({Stearoyl-βAla}-KKCDPETGECKK-NH2; linker 3-10 via oXylylene) |  | 1 to 100
CCCCCCCCCCCCCCCCCC(=O)N[C@H]1C[C@H]2C(=O)N[C@@H](CCC(N)=O)C(=O)N[C@H]3CSCc4ccccc4CSC[C@H](NC(=O)[C@H](CCC(=O)O)NC(=O)CNC(=O)[C@H]([C@@H](C)O)NC(=O)[C@H](CCC(=O)O)NC(=O)[C@@H]4CCCN4C(=O)[C@H](CC(=O)O)NC3=O)C(=O)N[C@@H](CCCCN)C(=O)N3CCC[C@@H]3C(=O)N2C1 [Example 82, {[&^1Pro((4S)-NH-Stearyl)-Gln-Cys(&^2)-Asp-Pro-Glu-Thr-Gly-Glu-Cys(&^3)-Lys-D-Pro&^1][&^2(1,2-phenylenediyl)dimethylene&^3]}] (cyclo(CDPETGECK[dP][X1](Stearoyl)Q); linker 1-8 via oXylylene) | 1 to 100 | 
CC(C)C[C@@H]1NC(=O)[C@@H]2CCCN2C(=O)[C@H](CC(C)C)NC(=O)[C@@H]2CSCc3cccc(c3)CSC[C@H](NC(=O)[C@H](CCC(N)=O)NC1=O)C(=O)N[C@@H](CC(=O)O)C(=O)N[C@@H](CCC(=O)O)C(=O)N[C@@H](CCC(=O)O)C(=O)N[C@@H]([C@@H](C)O)C(=O)NCC(=O)N[C@@H](CCC(=O)O)C(=O)N2 [Example 4, {[&^1Leu-Gln-Cys(&^2)-Asp-Glu-Glu-Thr-Gly-Glu-Cys(&^3)-Leu-Pro&^1][&^2(1,3-phenylenediyl)dimethylene&^3]}] (cyclo(CDEETGECLPLQ); linker 1-8 via mXylylene) | < 1 | 
CCCCCCCCCCCCCCCCCC(=O)NCCC(=O)N[C@@H](CC(C)C)C(=O)N[C@@H](CCC(N)=O)C(=O)N[C@H]1CSCc2ccccc2CSC[C@@H](C(=O)N[C@@H](CC(C)C)C(=O)N2CCC[C@H]2C(N)=O)NC(=O)[C@H](CCC(=O)O)NC(=O)CNC(=O)[C@H]([C@@H](C)O)NC(=O)[C@H](CCC(=O)O)NC(=O)[C@@H]2CCCN2C(=O)[C@H](CC(=O)O)NC1=O [Example 48, {[Stearyl-βAla-Leu-Gln-Cys(&^1)-Asp-Pro-Glu-Thr-Gly-Glu-Cys(&^2)-Leu-Pro-NH2][&^1(1,2-phenylenediyl)dimethylene&^2]}] ({Stearoyl-βAla}-LQCDPETGECLP-NH2; linker 3-10 via oXylylene) |  | 1 to 100
CCCCCCCCCCCCCCCCCC(=O)N[C@H]1C[C@H]2C(=O)N[C@@H](CCC(N)=O)C(=O)N[C@H]3CSCc4ccccc4CSC[C@H](NC(=O)[C@H](CCC(=O)O)NC(=O)CNC(=O)[C@H]([C@@H](C)O)NC(=O)[C@H](CCC(=O)O)NC(=O)[C@@H]4C[C@H](F)CN4C(=O)[C@H](CC(=O)O)NC3=O)C(=O)N[C@@H](CC(C)C)C(=O)N3CCC[C@@H]3C(=O)N2C1 [Example 72, {[&^1Pro((4S)-NH-Stearyl)-Gln-Cys(&^2)-Asp-Pro((4S)-F)-Glu-Thr-Gly-Glu-Cys(&^3)-Leu-D-Pro&^1][&^2(1,2-phenylenediyl)dimethylene&^2]}] | 1 to 100 | 
CCCCCCCCCCCCCCCCCC(=O)NCCC(=O)N[C@H](C(=O)N[C@H](C(=O)N[C@H]1CSCc2ccccc2CSC[C@@H](C(=O)N[C@H](C(=O)N[C@H](C(N)=O)C(C)C)C(C)C)NC(=O)[C@H](CCC(=O)O)NC(=O)CNC(=O)[C@H]([C@@H](C)O)NC(=O)[C@H](CCC(=O)O)NC(=O)[C@@H]2CCCN2C(=O)[C@H](CC(=O)O)NC1=O)C(C)C)C(C)C [Example 52, {[Stearyl-βAla-Val-Val-Cys(&^1)-Asp-Pro-Glu-Thr-Gly-Glu-Cys(&^2)-Val-Val-NH2][&^1(1,2-phenylenediyl)dimethylene&^2]}] ({Stearoyl-βAla}-VVCDPETGECVV-NH2; linker 3-10 via oXylylene) |  | 1 to 100
CCCCCCCCCCCCCCCCCC(=O)N[C@H]1C[C@H]2C(=O)N[C@@H](CCC(N)=O)C(=O)N[C@H]3CSCc4ccccc4CSC[C@H](NC(=O)[C@H](CCC(=O)O)NC(=O)CNC(=O)[C@H]([C@@H](C)O)NC(=O)[C@H](CCC(=O)O)NC(=O)[C@@H]4C[C@H](N)CN4C(=O)[C@H](CC(=O)O)NC3=O)C(=O)N[C@@H](CC(C)C)C(=O)N3CCC[C@@H]3C(=O)N2C1 [Example 73, {[&^1Pro((4S)-NH-Stearyl)-Gln-Cys(&^2)-Asp-Pro((4S)-NH2)-Glu-Thr-Gly-Glu-Cys(&^3)-Leu-D-Pro&^1][&^2(1,2-phenylenediyl)dimethylene&^3]}] | 1 to 100 | 

Source: US20200255478A1, “NOVEL COMPOUNDS ACTIVATING THE NRF2 PATHWAY” (Almirall, S.A., priority 2017, published 2020)
